Data published in US20260215425A1, “NITRIFICATION INHIBITORS” (The University of Melbourne, priority 2022, published 2026).
Read-outs that look alike come from different tables or passages of the source.

Experiments:
N. europaea = assay: mode of inhibition, Michaelis-Menten kinetics of NO2- production; format: cell-based; conditions: for Km: read-out: Km(app)
Experimental: These studies were performed using a modified procedure of that described earlier. In FIG. 4a, the rate of NO2^− production was measured as a function of [NH4^+] to determine whether the inhibitor follows Michaelis-Menten kinetics. The [NH4^+] was 0.003 mM, 0.03 mM, 0.5 mM, 1.5 mM, 3 mM, 10 mM, 15 mM and 30 mM. [4-MPT] remained constant at 0.3 mM. The Michaelis-Menten plots show saturation kinetics, where the NO2 production became independent of [NH4^+] beyond 0.5 mmol L^−1.
Mode of inhibition studies with remaining inhibitors N001, N003, N014 and N018 were conducted as a proof of concept.

soils B-E = assay: soil incubation, N2O production in soils B-E
Experimental: Soil incubations were performed in three replicates. Each sample consisted of 6 g of sieved soil (2 mm). The soil was air-dried after collection and pre-incubated prior to the experiment for seven days at 50% water holding capacity (WHC). The soil was transferred to a gas chromatography vial (22 mL volume, clear glass, Macherey-Nagel, Germany) and compacted densely to allow 5.5-6.2 cm headspace. The soil in the vials was incubated for a total of 21 days at a constant temperature of 21° C. with an open lid to ensure gas circulation. The control incubations contained ‘untreated’ soil (deionized H2O only) and ‘fertiliser only’ soil ((NH4)2SO4; 50 mg kg^−1 soil) and accompanied each measurement. (NH4)2SO4 was applied as an aqueous solution ([…]) and introduced on the soil surface to mimic field conditions. Three inhibitor solutions were prepared from DMP and 4-MPT at concentrations of 0.5 mol %, 2.5 mol % and 5 mol % of applied fertiliser-N and applied on the soil surface. The soils reached 60% WHC after the treatments had been applied and were kept at that moisture level by periodically adding deionized water to compensate for evaporation losses. At the day of measurement (day 1, 3, 5, 7, 14 and 21 after fertilization) the vials were closed gas-tight with a rubber septum and aluminium lid and opened again after each measurement. The N2O emission was analysed using a gas chromatograph equipped with an electron capture detector and flame ionization detector (GC-ECD/FID; Clarus 580, Perkin Elmer). A linear regression slope was used to calculate N2O—N production rates, F, according to eqn. 5:
where ΔC/Δt represents the change of the N2O concentration over the time interval t in ppbv, V represents the headspace volume in L, M represents the molar mass of N in N2O, m represents the amount of soil in g dry weight, Vm represents the molar volume of ideal gases (22.414 L mol^−1) at 0° C. and 101.325 kPa, corrected for the gas sampler using T0 (273.15 K) and Ta (air temperature in K).

[1] = inhibitor concentration 37.5 μM
[2] = inhibitor concentration 75.0 μM

C#CCn1cc(C)nn1 [Compound 4-MPT, 4-Methyl-1-(prop-2-yn-1yl)-1H-1,2,3-triazole]
mode of inhibition (N. europaea; NO2- production against [NH4+]): non-competitive inhibition mode | Vmax(app) (N. europaea; [1]): 52.7 ± 2.0 μmol (mg protein min)^−1 | Km (N. europaea; [1]): 30.2 ± 0.3 µM | Vmax(app) (N. europaea; [2]): 39.2 ± 2.0 μmol (mg protein min)^−1 | Km (N. europaea; [2]): 23.7 ± 4 µM | N2O production (soils B-E; Soil B, 0.5 mol %, Day 1): 0.058 ± 0.004 μg g^−1 soil h^−1 | N2O production (soils B-E; Soil B, 0.5 mol %, Day 3): 0.009 ± 0.009 μg g^−1 soil h^−1 | N2O production (soils B-E; Soil B, 0.5 mol %, Day 5): 0.000 ± 0.000 μg g^−1 soil h^−1 | N2O production (soils B-E; Soil B, 0.5 mol %, Day 7): −0.013 ± 0.013 μg g^−1 soil h^−1 | N2O production (soils B-E; Soil B, 0.5 mol %, Day 14): 0.008 ± 0.008 μg g^−1 soil h^−1 | N2O production (soils B-E; Soil B, 0.5 mol %, Day 21): 0.011 ± 0.011 μg g^−1 soil h^−1 | N2O production (soils B-E; Soil B, 2.5 mol %, Day 1): 0.007 ± 0.007 μg g^−1 soil h^−1 | N2O production (soils B-E; Soil B, 2.5 mol %, Day 3): 0.000 ± 0.000 μg g^−1 soil h^−1 | N2O production (soils B-E; Soil B, 2.5 mol %, Day 5): −0.007 ± 0.007 μg g^−1 soil h^−1 | N2O production (soils B-E; Soil B, 2.5 mol %, Day 7): −0.019 ± 0.019 μg g^−1 soil h^−1 | N2O production (soils B-E; Soil B, 2.5 mol %, Day 14): 0.000 ± 0.000 μg g^−1 soil h^−1 | N2O production (soils B-E; Soil B, 2.5 mol %, Day 21): 0.000 ± 0.000 μg g^−1 soil h^−1 | N2O production (soils B-E; Soil B, 5 mol %, Day 1): 0.000 ± 0.000 μg g^−1 soil h^−1 | N2O production (soils B-E; Soil B, 5 mol %, Day 3): 0.000 ± 0.000 μg g^−1 soil h^−1 | N2O production (soils B-E; Soil B, 5 mol %, Day 5): 0.000 ± 0.000 μg g^−1 soil h^−1 | N2O production (soils B-E; Soil B, 5 mol %, Day 7): −0.048 ± 0.026 μg g^−1 soil h^−1 | N2O production (soils B-E; Soil B, 5 mol %, Day 14): 0.000 ± 0.000 μg g^−1 soil h^−1 | N2O production (soils B-E; Soil B, 5 mol %, Day 21): 0.000 ± 0.000 μg g^−1 soil h^−1 | N2O production (soils B-E; Soil C, 0.5 mol %, Day 1): 0.119 ± 0.011 μg g^−1 soil h^−1 | N2O production (soils B-E; Soil C, 0.5 mol %, Day 3): 0.062 ± 0.001 μg g^−1 soil h^−1 | N2O production (soils B-E; Soil C, 0.5 mol %, Day 5): 0.059 ± 0.007 μg g^−1 soil h^−1 | N2O production (soils B-E; Soil C, 0.5 mol %, Day 7): 0.054 ± 0.006 μg g^−1 soil h^−1 | N2O production (soils B-E; Soil C, 0.5 mol %, Day 14): 0.119 ± 0.010 μg g^−1 soil h^−1 | N2O production (soils B-E; Soil C, 0.5 mol %, Day 21): 0.107 ± 0.008 μg g^−1 soil h^−1 | N2O production (soils B-E; Soil C, 2.5 mol %, Day 1): 0.042 ± 0.04 μg g^−1 soil h^−1 | N2O production (soils B-E; Soil C, 2.5 mol %, Day 3): 0.000 ± 0.000 μg g^−1 soil h^−1 | N2O production (soils B-E; Soil C, 2.5 mol %, Day 5): 0.011 ± 0.011 μg g^−1 soil h^−1 | N2O production (soils B-E; Soil C, 2.5 mol %, Day 7): 0.031 ± 0.003 μg g^−1 soil h^−1 | N2O production (soils B-E; Soil C, 2.5 mol %, Day 14): 0.012 ± 0.008 μg g^−1 soil h^−1 | N2O production (soils B-E; Soil C, 2.5 mol %, Day 21): 0.019 ± 0.010 μg g^−1 soil h^−1 | N2O production (soils B-E; Soil C, 5 mol %, Day 1): 0.017 ± 0.017 μg g^−1 soil h^−1 | N2O production (soils B-E; Soil C, 5 mol %, Day 3): 0.000 ± 0.000 μg g^−1 soil h^−1 | N2O production (soils B-E; Soil C, 5 mol %, Day 5): 0.000 ± 0.000 μg g^−1 soil h^−1 | N2O production (soils B-E; Soil C, 5 mol %, Day 7): 0.024 ± 0.013 μg g^−1 soil h^−1 | N2O production (soils B-E; Soil C, 5 mol %, Day 14): 0.023 ± 0.007 μg g^−1 soil h^−1 | N2O production (soils B-E; Soil C, 5 mol %, Day 21): 0.000 ± 0.000 μg g^−1 soil h^−1 | N2O production (soils B-E; Soil D, 0.5 mol %, Day 1): 0.029 ± 0.029 μg g^−1 soil h^−1 | N2O production (soils B-E; Soil D, 0.5 mol %, Day 3): 0.058 ± 0.009 μg g^−1 soil h^−1 | N2O production (soils B-E; Soil D, 0.5 mol %, Day 5): 0.004 ± 0.004 μg g^−1 soil h^−1 | N2O production (soils B-E; Soil D, 0.5 mol %, Day 7): 0.037 ± 0.021 μg g^−1 soil h^−1 | N2O production (soils B-E; Soil D, 0.5 mol %, Day 14): 0.037 ± 0.005 μg g^−1 soil h^−1 | N2O production (soils B-E; Soil D, 0.5 mol %, Day 21): 0.045 ± 0.014 μg g^−1 soil h^−1 | N2O production (soils B-E; Soil D, 2.5 mol %, Day 1): 0.015 ± 0.010 μg g^−1 soil h^−1 | N2O production (soils B-E; Soil D, 2.5 mol %, Day 3): 0.020 ± 0.010 μg g^−1 soil h^−1 | N2O production (soils B-E; Soil D, 2.5 mol %, Day 5): 0.000 ± 0.000 μg g^−1 soil h^−1 | N2O production (soils B-E; Soil D, 2.5 mol %, Day 7): 0.037 ± 0.018 μg g^−1 soil h^−1 | N2O production (soils B-E; Soil D, 2.5 mol %, Day 14): 0.000 ± 0.000 μg g^−1 soil h^−1 | N2O production (soils B-E; Soil D, 2.5 mol %, Day 21): 0.000 ± 0.000 μg g^−1 soil h^−1 | N2O production (soils B-E; Soil D, 5 mol %, Day 1): 0.000 ± 0.000 μg g^−1 soil h^−1 | N2O production (soils B-E; Soil D, 5 mol %, Day 3): 0.027 ± 0.013 μg g^−1 soil h^−1 | N2O production (soils B-E; Soil D, 5 mol %, Day 5): 0.000 ± 0.000 μg g^−1 soil h^−1 | N2O production (soils B-E; Soil D, 5 mol %, Day 7): 0.020 ± 0.011 μg g^−1 soil h^−1 | N2O production (soils B-E; Soil D, 5 mol %, Day 14): 0.000 ± 0.000 μg g^−1 soil h^−1 | N2O production (soils B-E; Soil D, 5 mol %, Day 21): 0.000 ± 0.000 μg g^−1 soil h^−1 | N2O production (soils B-E; Soil E, 0.5 mol %, Day 1): 0.007 ± 0.007 μg g^−1 soil h^−1 | N2O production (soils B-E; Soil E, 0.5 mol %, Day 3): 0.011 ± 0.011 μg g^−1 soil h^−1 | N2O production (soils B-E; Soil E, 0.5 mol %, Day 5): 0.000 ± 0.000 μg g^−1 soil h^−1 | N2O production (soils B-E; Soil E, 0.5 mol %, Day 7): 0.000 ± 0.000 μg g^−1 soil h^−1 | N2O production (soils B-E; Soil E, 0.5 mol %, Day 14): 0.000 ± 0.000 μg g^−1 soil h^−1 | N2O production (soils B-E; Soil E, 0.5 mol %, Day 21): 0.000 ± 0.000 μg g^−1 soil h^−1 | N2O production (soils B-E; Soil E, 2.5 mol %, Day 1): 0.008 ± 0.008 μg g^−1 soil h^−1 | N2O production (soils B-E; Soil E, 2.5 mol %, Day 3): 0.008 ± 0.008 μg g^−1 soil h^−1 | N2O production (soils B-E; Soil E, 2.5 mol %, Day 5): 0.000 ± 0.000 μg g^−1 soil h^−1 | N2O production (soils B-E; Soil E, 2.5 mol %, Day 7): 0.000 ± 0.000 μg g^−1 soil h^−1 | N2O production (soils B-E; Soil E, 2.5 mol %, Day 14): 0.000 ± 0.000 μg g^−1 soil h^−1 | N2O production (soils B-E; Soil E, 2.5 mol %, Day 21): 0.000 ± 0.000 μg g^−1 soil h^−1 | N2O production (soils B-E; Soil E, 5 mol %, Day 1): 0.012 ± 0.012 μg g^−1 soil h^−1 | N2O production (soils B-E; Soil E, 5 mol %, Day 3): 0.000 ± 0.000 μg g^−1 soil h^−1 | N2O production (soils B-E; Soil E, 5 mol %, Day 5): 0.000 ± 0.000 μg g^−1 soil h^−1 | N2O production (soils B-E; Soil E, 5 mol %, Day 7): 0.000 ± 0.000 μg g^−1 soil h^−1 | N2O production (soils B-E; Soil E, 5 mol %, Day 14): 0.000 ± 0.000 μg g^−1 soil h^−1 | N2O production (soils B-E; Soil E, 5 mol %, Day 21): 0.000 ± 0.000 μg g^−1 soil h^−1 | N2O production rate (soils B-E; soil B, 0.5 mol % (lowest application rate), day 1): 0.06 ng g^−1 soil h^−1 | amount of N2O (soils B-E; soil B, other than day 1 at the lowest application rate, over the duration of the experiment): below the detection limit | N2O relative to the amount released from the uninhibited soil (soils B-E; soil C, 0.5 mol %): 25% | N2O produced (soils B-E; soil C, 0.5 mol %, across the duration of the incubation): about 0.12 ng h^1 | production of N2O (soils B-E; soil C, higher application rates (2.5 and 5 mol %)): nearly completely suppressed | slowing down of N2O production (soils B-E; soil D, 0.5 mol %): 60% | N2O production rate (soils B-E; soil D, two higher application rates (2.5 and 5 mol %), from the start of the experiment): practically zero | N2O production beyond day 5 (soils B-E; soil E, all 4-MPT treatments (0.5, 2.5, 5 mol %)): no N2O production was detected
